In series [1] the test system is Human immunodeficiency virus 1. Type of series: functional, cell-based. As to conditions: Human immunodeficiency virus 1, A17, MAGI-CCR5, 48 h.
A short description of series [2]: Therapeutic index, ratio of TC50 for human MAGI-CCR5 cells to IC50 for HIV-1 NL4-3 infected in MAGI-CCR5 cells.
A short description of series [3]: Cytotoxicity against human PBMC assessed as reduction in cell viability by MTS assay. Type of series: cell-based. As to conditions: read-out: TC50 (the source's name). For orientation: Tetrazolium assays rely on reduction of a dye to a coloured formazan, in cell work by metabolically active cells.
The nature of series [4]: Metabolic stability in rat liver microsomes assessed as compound remaining at 4 uM preincubated for 5 mins followed by NADPH addition measured after 60 mins by LC/MS analysis. As to conditions: read-out: Stability. It counts as ADME, microsome. In general terms: Microsomes from liver hold many membrane-bound enzymes, among them those of drug oxidation.
Series [5] in a line: Therapeutic index, ratio of TC50 for human MAGI-CCR5 cells to IC50 for HIV-1 NL4-3 harboring reverse transcriptase K103N mutant infected in MAGI-CCR5 cells.
Series [6] concerns Human immunodeficiency virus 1. Nature of the series: microbe, parasite or virus in culture. As to conditions: Human immunodeficiency virus 1, NL4-3, MAGI-CCR5, 48 h.
Description: Antiviral activity against wild type HIV-1 NL4-3 infected in human MAGI-CCR5 cells assessed as reduction in viral infection after 48 hrs by fluorescence based beta-galactosidase reporter gene assay
The test system of series [7] is Human immunodeficiency virus 1. Nature of the series: microbe, parasite or virus in culture. As to conditions: Human immunodeficiency virus 1, NL4-3, MAGI-CCR5, 48 h. The source holds these as a separate data set.
Description: Antiviral activity against HIV-1 NL4-3 harboring reverse transcriptase E138A mutant infected in human MAGI-CCR5 cells assessed as reduction in viral infection after 48 hrs by fluorescence based beta-galactosidase reporter gene assay
For a further series, the system named is PBMC. In words: Antiviral activity against HIV-1 Bal infected in human PBMC by MTS assay. Type of series: functional, cell-based.
In series [8] the test system is Human immunodeficiency virus 1. In words: Antiviral activity against HIV-1 Bal infected in human MAGI-CCR5 cells assessed as reduction in viral infection after 48 hrs by fluorescence based beta-galactosidase reporter gene assay. Type of series: functional, cell-based. As to conditions: for IC50 / IC90: Human immunodeficiency virus 1, Bal, MAGI-CCR5, 48 h. On the technique in general: In a reporter assay the amount or activity of a reporter protein is the signal.

For series [9], the system named is Human immunodeficiency virus 1. Type of series: functional, cell-based. As to conditions: Human immunodeficiency virus 1, NL4-3, MAGI-CCR5, 48 h.
Series [10] has as its system Human immunodeficiency virus 1. In words: Antiviral activity against HIV-1 NL4-3 harboring reverse transcriptase K103N mutant infected in human MAGI-CCR5 cells assessed as reduction in viral infection after 48 hrs by fluorescence based beta-galactosidase reporter gene assay. Type of series: functional, cell-based. As to conditions: Human immunodeficiency virus 1, NL4-3, MAGI-CCR5, 48 h.

A short description of series [11]: Therapeutic index, ratio of TC50 for human PBMC to IC50 for HIV-1 Bal infected in human PBMC.
Series [12] in a line: Metabolic stability in rat plasma assessed as compound remaining at 100 uM after 1 hr by LC/MS analysis. Type of series: ADME, cell-free. As to conditions: read-out: Stability.
Series [13] can be described thus: Cytotoxicity against human MAGI-CCR5 cells assessed as reduction in cell viability after 48 hrs by MTS assay. As to conditions: read-out: TC50. It counts as cell-based.
Series [14] is described as follows: Therapeutic index, ratio of TC50 for human MAGI-CCR5 cells to IC50 for HIV-1 Bal infected in MAGI-CCR5 cells.
The nature of series [15]: Therapeutic index, ratio of TC50 for human MAGI-CCR5 cells to IC50 for HIV-1 NL4-3 harboring reverse transcriptase E138A mutant infected in MAGI-CCR5 cells.
A short description of series [16]: (§1) Inhibition of HIV1 NL4-3 reverse transcriptase assessed as reduction in [3H]dTTP incorporation using poly(rA)/oligo(dT) as template/primer after 1 hr by microbeta scintillation counting analysis. More on the design: species or system Human immunodeficiency virus 1.
The subject of series [17] is Human immunodeficiency virus 1. Described as §1.

These results are taken from ChEMBL document CHEMBL4043090 (Bioorg Med Chem, 2017).

The structures appear in SMILES notation. Bounds are passed on as bounds.

As for `CC1=C(c2nc(-c3ccc(C#N)cc3)cs2)C(c2cc3ccccc3n2C)NC(=O)N1` (centres undefined), the 50% inhibitory concentration (IC50) (commonly the concentration that gives 50% inhibition) is > 100 µM in series [1]; 0.52 to 0.9 µM in series [6]; 43.5 µM in series [7]; 1.1 µM in the series on PBMC; 0.7 µM in series [8]; > 100 µM in [9]. The IC50 in series [10] was 3.84 µM. The TI result in series [2] is “>=111 - 192”; in series [5], >26.04; in series [11] it was 91; in series [14] it was 143; in [15], >2.3. The CC50 in [3] was > 100 µM. In addition, the remaining at 1 h, 4 µM in [4] stood at 62.9%. In addition, the IC90 (commonly the point of the concentration-response curve where the effect stands at 90%) in [6] is 5 to 8.39 µM; in series [7], > 100 µM; in the series on PBMC, 3.2 µM; in [8] it was 3.7 µM; in series [9] it was > 100 µM; in series [10], > 100 µM. Besides, the Activity result in series [8] was “Dose-dependent effect”. Further, the remaining at 1 h, 100 µM in [12] amounted to 95.6%. The CC50 at 48 h in series [13] is > 100 µM.

As for `Cc1ccnc2c1NC(=O)c1cccnc1N2C1CC1` [NEVIRAPINE], the IC50 in series [1] was > 10 µM; in series [6] it was 0.04 to 0.07 µM; in the series on PBMC, 0.04 to 0.06 µM; in series [8] it was 0.04 µM; in series [9], > 10 µM; in series [10] it was 0.03 µM. Moreover, the 90% effect concentration (IC90) in series [6] was 0.54 to 0.6 µM; in [7], > 10 µM; with PBMC, 0.18 to 0.19 µM; in series [8] it was 0.03 to 0.42 µM; in series [9], > 10 µM; in series [10], 0.35 µM. Moreover, the Activity result in series [8] was “Dose-dependent effect”.

In the case of `Cc1cn([C@H]2C[C@H](N=[N+]=[N-])[C@@H](CO)O2)c(=O)[nH]c1=O` [ZIDOVUDINE], the IC90 in series [6] was 0.35 µM; in [7] it was > 1 µM; in series [9] it was 0.1 µM; in series [10], 0.21 µM. Besides, the IC50 in [9] is 0.009 µM; in [10], 0.01 µM. The CC50 at 48 h in series [13] is > 1 µM.

In the series on PBMC, `CC1=C(c2nc(-c3ccc(C#N)cc3)cs2)[C@H](c2cccc(O)c2)NC(=O)N1` displayed an IC50 of 22 µM and an IC90 of 77 µM. Moreover, the IC50 in [16] is > 10 µM. Besides, in [11], the TI is reported as >4.5.

For the compound `CC1=C(c2nc(-c3ccc(C#N)cc3)cs2)[C@@H](c2cccc(O)c2)NC(=O)N1`, the CC50 in series [3] was > 100 µM. Moreover, in the series with PBMC, the 50% inhibitory concentration (IC50) turned out to be 0.11 µM and it took 0.42 µM to reach the 90% level (IC90). The half-inhibitory concentration (IC50) in series [16] amounted to 0.6 µM. Besides, the inhibition entry in series [17] is “Dose-dependent effect”. The TI in series [11] is listed as >909.

Turning to `CC1=C(c2nc(-c3ccc(C#N)cc3)cs2)C(c2ccc(F)nc2)NC(=O)N1` (centres undefined), the half-maximal inhibitory concentration (IC50) in [1] is > 100 µM; in [6], 1.1 µM; with PBMC it was 0.59 µM; in series [8], 1.1 µM. Further, the IC90 in series [1] was > 100 µM; in [6], 7.6 µM; in the series on PBMC it was 2 µM; in series [8], 5.4 µM. In addition, the TI in [2] was >91; in series [11], 170; in series [14] it was 91. The CC50 in series [3] was > 100 µM. Further, the remaining at 1 h, 4 µM in series [4] worked out at 49.4%. For the same compound, the Activity entry in series [8] is “Dose-dependent effect”. Further, in [12], the remaining at 1 h, 100 µM stood at 100%. For the same compound, the CC50 at 48 h in [13] is > 100 µM.
